The test system of one data set is MDCK cells. Description: Live-cell impedance measurements of MDCK cells after compound treatment (water transport, doming). The format is cell-based, canine. On the procedure: (§1) Impedance measurements were performed with two different electric field configurations named vertical field (VF) and lateral field (LF) and at four different frequencies of 250 Hz, 1 kHz, 4 kHz, and 16 kHz, as shown in FIG. 27A. In total, 9 impedance parameter maps were measured per field configuration, including magnitude and phase for the 4 frequencies and a Direct Current (DC, 0 Hz) magnitude. […] Connections were observed between biological information and measurements at frequency magnitudes, phases, and DC.
(§2) To perform field-based impedance measurements across multiple frequencies, a voltage stimulation was applied which is the summation of the four different frequency signals and return currents were measured using a transimpedance amplifier (TIA) configuration with a feedback gain of 18 MΩ. The magnitudes of the AC voltage signals were scaled to create similar output amplitudes that were measured by the TIA configuration (0.2 V/250 Hz, 0.08 V/1 kHz, 0.04 V/4 kHz, and 0.02 V/16 kHz for lateral field, 0.25 V/250 Hz, 0.1 V/1 kHz, 0.04 V/4 kHz, and 0.025 V/16 kHz for vertical field). Six of the 96 wells were scanned at a time taking 2.5 s, resulting in a total scan time across the well plate of 40 s. A fast Fourier transform (FFT) was used to extract the magnitude and phase of each of the four frequencies and the DC component—9 impedance parameter maps for each field configuration.
(§3) A reference impedance map was used to determine the location of cells: a threshold was set above the electrodes' default impedance in solution, and the presence of a cell above an electrode then increased the impedance beyond the threshold for detection. Typically, the VF 4 kHz map provided the best contrast for generating the cell mask. For magnitude, phase, and DC, the median value of electrodes with cells was then calculated. An additional epoxy mask was calculated in a similar manner to remove electrodes which had spillover epoxy from well plate attachment. Before each cell plating, a reference measurement was taken in empty culture media to calculate the epoxy mask.
(§4) Transient features such as motility and migration were generated from impedance videos through a root-mean-square (RMS) calculation. The difference between two unmasked image frames was taken (the epoxy mask was still used if applicable), then the RMS calculation was performed across the pixels of the difference map. To normalize for changes in magnitude, the calculated RMS was then divided by the median value of the cell-masked well distribution. Typically, the VF 4 kHz map was used for the RMS signal generation.
(§5) Compound treatments were performed using a half media exchange. To prepare for compound addition, half the media from each well was removed. […]

Data set [1] deals with autosomal dominant polycystic kidney disease (ADPKD). The settings on record: cited from earlier work.
Data set [2] deals with Caco-2 cells. Description: Caco-2 impedance barrier function measurements (341 compound screen, dose response, Amonafide analogues). The settings on record: for change in Caco-2 barrier function at 12 hours post-compound application: 10 μM, versus control; for barrier increase (maximum VF 250 Hz) over the 48-hours: screen at 10 μM. Type of data set: cell-based, human. On the procedure: To execute and analyze the screens, cells were seeded on five CMOS 96-wellplates, allowed to grow for 24 hours for A549 or 48 hours for Caco-2, compounds were added at 10 μM in 1% DMSO via a half media swap using an OpenTrons liquid handling robot. Effects were measured for 48 hours, with impedance measurements taken every 15 minutes. The many field/frequency and calculated parameters were then normalized to a timepoint one hour before compound addition. The array of normalized parameters at timepoints logarithmically spaced from compound addition to +48 hours were then used for a principal component analysis (PCA) and unbiased clustering using the top 20 PCA dimensions.
Compound treatments were performed using a half media exchange. To prepare for compound addition, half the media from each well was removed. Compounds were prepared at 2× concentration in cell culture media, and the 2× compound solution was then added to the wells. Care was taken to keep DMSO concentration below 1%, compound dilutions were performed with a constant DMSO concentration. Compound in media was temperature- and CO2-equilibrated prior to addition. All compounds including the 341 compound library were obtained from Selleckchem Chemicals (Houston, TX). For the screening analysis, the pathway and target information provided by Selleckchem Chemicals was curated together.
In the second approach, rather than comparing 5 measurement parameters, all field and calculation parameters were used to perform an unbiased phenotypic profiling with a larger compound library. A total of 341 compounds were chosen as a sub-set of an FDA approved library and applied on two cell types, A549 and Caco-2. At least two compounds per target were chosen for conserved phenotype effects. For the screens, compounds were added 24 or 48 hours post cell seeding and measured up to 48 hours after the compound addition. Time normalization, a principal component analysis (PCA), and unbiased clustering were sequentially performed on the high-dimensional data readouts (VF & LF magnitudes, phase, and DC). This unbiased approach ensured compound separation based solely on functional and morphological effects of the cells, with no bias of the targets/pathways of the compounds.

For the next data set, the system named is ZO-1 in Caco-2 cells. Description: Immunofluorescence imaging and quantification of ZO-1 in Caco-2 cells. Particulars: 48 hours post-compound treatment. The format is cell-based, human. On the procedure: For immunofluorescence imaging, cells were grown on coverslips and then either allowed to grow for 48 hours or treated with relevant compounds for 48 hours. Cells were then fixed in 4% paraformaldehyde, washed, permeabilized with 0.5% Triton-X 100 in PBS, and then subjected to antibody incubation. Antibodies used were anti-E-Cadherin (obtained from Cell Signaling Technology, Danvers, MA, as cat no: 3195T), anti-ZO1 (obtained from Thermo Fisher, Waltham, MA, as cat no:617300) and anti-Occludin (obtained from Thermo Fisher as cat no: 331500). Alexa Fluor 488 and 568 secondary antibodies were used. Coverslips were mounted in Vectashield® antifade mounting medium with DAPI.
Imaging was performed using a Yokogawa Wi spinning disk confocal on an inverted Nikon Ti fluorescence microscope equipped with Hamamatsu ORCA-Fusion BT CMOS camera (6.5 μm^2 photodiode), Lumencor SOLA fluorescence light source, and Nikon LUN-F XL solid state laser combiner: 405 nm (80 mW), 445 nm (35 mW), 488 nm (80 mW), 514 nm (50 mW), 561 nm (65 mW), and 640 nm (60 mW). For imaging, the widefield modality of the microscope was typically used, and all imaging was done using a 20× objective. Acquisition was performed using consistent exposure across samples to enable intensity quantification. Images were processed using the open source image processing software FIJI.
Quantification of ZO-1 in the cell-membrane and nucleus was performed by manually defining ROIs for the cell membrane and nucleus. Mean integrated intensity was calculated within the ROI. All quantification was performed in raw, unprocessed images.

In data set [3] the test system is Caco-2 cells. In words: Caco-2 impedance barrier function measurements (341 compound screen, dose response, Amonafide analogues). Type of data set: cell-based, human. Particulars: dose response 1 nM to 10 μM.
Another data set deals with many cell types. In words: Vertical field (VF) impedance across many cell types. The format is cell-based. On the procedure:
as §1, §2

Another data set has as its system MDA-MB-231 cells. In words: Live-cell impedance measurements of MDA-MB-231 cells after compound treatment. The format is cell-based, human. On the procedure: as §1, §2, §3, §4, §5

Structures are written as SMILES. “Also recorded” adds a separate entry of the source.

Regarding `COc1cc(Nc2ncc3c(n2)-c2ccc(Cl)cc2C(c2c(F)cccc2OC)=NC3)ccc1C(=O)O` [Alisertib], in the data set with MDCK cells, the cell surface attachment result was “sharp decrease” and the transepithelial water transport result is given as “accelerated”. Moreover, the “domes (doming)” value in the data set with MDCK cells (Alisertib 1 μM, Bosutinib 10 μM) was “increased doming; also recorded: Domes were only observed”. In addition, the “water transport detachment (LF 16 kHz) with respect to the control” value in the data set with MDCK cells (mean±s.d. for 3 wells) is recorded as “accelerated”. Further, the “ADPKD in animal models” value in data set [1] is recorded as “exacerbate”.
In the case of `CN(C)CCN1C(=O)c2cccc3cc(N)cc(c23)C1=O` [Amonafide], in the data set on Caco-2 cells [2], the “change in Caco-2 barrier function at 12 hours post-compound application” value (shortened to “change in Caco-2 barrier function”) is on record as “rapid increase in barrier” and the “barrier increase (maximum VF 250 Hz) over the 48-hours” value is recorded as “largest barrier increase; also recorded: highest observed increase in barrier”. Besides, the “ZO-1 levels and distribution (membrane, nucleus)” value (shortened to “ZO-1 levels and distribution”) with ZO-1 in Caco-2 cells is “increase in membrane ZO-1 levels, with additional nuclear localization; also recorded: Significant increases in ZO-1 in the membrane and nucleus”. The “time course of barrier increase” value in the data set on Caco-2 cells [3] is “rapid increase in barrier; also recorded: rapid and sustained increase”.
On to `COc1ccc(C[C@H]2NC[C@H](O)[C@H]2OC(C)=O)cc1` [Anisomycin], for which, in the data set on many cell types, the “VF (vertical field impedance)” value is “increases in VF”.
Turning to `Cc1cc(C2CCCCC2)n(O)c(=O)c1` [Ciclopirox], the “barrier increase (maximum VF 250 Hz) over the 48-hours” value in the data set on Caco-2 cells [2] is “largest barrier increase; also recorded: increased the barrier; also recorded: highest observed increase in barrier”. In the data set on ZO-1 in Caco-2 cells, the “ZO-1 levels and distribution” value is “did not affect ZO-1 distribution or expression”. For the same compound, in the data set with Caco-2 cells [3], the “time course of barrier increase” value is recorded as “more gradual increase in barrier”.
For the compound `C=C1[C@@H](C)[C@H]2[C@H](Cc3ccccc3)NC(=O)[C@]23[C@H](OC(C)=O)/C=C/[C@@](C)(O)C(=O)[C@@H](C)C/C=C/[C@H]3[C@@H]1O` [Cytochalasin D], in the data set with MDA-MB-231 cells, the attachment entry is given as “decreased”, the “concentration giving immediate cell size decrease” value is at least 0.2 µM, the “concentration giving subsequent cell size increase” value was at least 1 µM and the “motility (RMS)” value was “decrease”.
Take `CCN(CC)CCN1C(=O)c2cccc3cc(N)cc(c23)C1=O` [NSC 308848]: the “change in Caco-2 barrier function” value in the data set with Caco-2 cells [2] is recorded as “rapid increase in barrier”. Besides, in the data set with ZO-1 in Caco-2 cells, the “ZO-1 levels and distribution” value was “Significant increases in ZO-1 in the membrane and nucleus”.
With `CN(C)CCN1C(=O)c2cccc3cc(NC(N)=O)cc(c23)C1=O` [UNBS5162], in the data set on Caco-2 cells [2], the “change in Caco-2 barrier function” value is reported as “did not affect the barrier”. Further, the “ZO-1 levels and distribution” value with ZO-1 in Caco-2 cells is reported as “did not affect ZO-1 levels or distribution”.

Values taken from patent US20240385168A1, “SEMICONDUCTOR-BASED MEASUREMENT DEVICES” (CytoTronics, priority 2023, published 2024).
